# “And” between values parts separate entries of the source, which are not always exact repeats. Equal entries are not always repeated. Where two headings read alike, the source gives them in different places. Ends that are not written are not given here.
# Legend:
# [1] = system: CRMP2 residue S522 phosphorylation by Cdk5; conditions: ref [66]; cited from earlier work
# [2] = system: presynaptic N-type voltage-gated calcium channels; conditions: ref [66]; cited from earlier work
# [3] = system: model of postoperative, neuropathic, pain, and cephalic pain; conditions: ref [63], [65]; cited from earlier work
# [4] = system: cytosolic Na+ in cultured DRG neurons; assay: Sodium fluorescence imaging; type: cell-based, rat
# [5] = system: SUMOylation; conditions: cited from earlier work
# [6] = system: humans; conditions: current clinically used medication; no reference given; cited from earlier work
# [7] = system: naïve male SD rats
# [8] = system: NaV1.7; conditions: CAD cells; ref [20]; [21]; cited from earlier work
# [9] = biological target: recombinant human CRMP2-His (collapsin response mediator protein 2) (human) (UniProt Q16555); assay: MST
# [10] = biological target: recombinant human CRMP2-His (collapsin response mediator protein 2) (human) (UniProt Q16555); assay: MST; remark: listed apart in the source
# [11] = biological target: recombinant human CRMP2-His (collapsin response mediator protein 2) (human) (UniProt Q16555); assay: MST; remark: listed apart in the source
# [12] = biological target: recombinant human CRMP2-His (collapsin response mediator protein 2) (human) (UniProt Q16555); assay: MST; remark: listed apart in the source
# [13] = biological target: recombinant human CRMP2-His (collapsin response mediator protein 2) (human) (UniProt Q16555); assay: AlphaScreen or HTRF
# [14] = biological target: CRMP2; assay: Microscale thermophoresis; set-up: species or system human; conditions: read-out: apparent Kd, Ubc9 binding to CRMP2; MST; Ubc9-GST 0.003-100 μM; NT-647 labeled CRMP2; PBS-T (0.05% Tween-20), room temperature, 10 min; no cofactor; mean ± SEM, n=3
# [15] = biological target: Ubc9-CRMP2 interaction (Homo sapiens, UniProt P63279); assay: ALPHA assay, Ubc9-GST binding to CRMP2-His and its disruption; conditions: binding stable over at least this window
# [16] = system: SNI rats; conditions: rat, in vivo
# [17] = biological target: Ubc9 (Homo sapiens, UniProt P63279); assay: MST, t-CSM binding to NT-647 labeled Ubc9
compound,measurement,setting,value
COC[C@H](NC(C)=O)C(=O)NCc1ccccc1 [(S)-lacosamide],CRMP2 phosphorylation by Cdk5,[1],inhibiting phosphorylation by Cdk5
same,calcium influx,[2],decrease of calcium influx
same,thermal hypersensitivity and mechanical allodynia,[3],mitigation of thermal hypersensitivity and mechanical allodynia
C[C@@H]1O[C@@H](O[C@H]2C[C@@H](O)[C@]3(CO)[C@H]4[C@H](O)C[C@]5(C)[C@@H](C6=CC(=O)OC6)CC[C@]5(O)[C@@H]4CC[C@]3(O)C2)[C@H](O)[C@H](O)[C@H]1O [Ouabain],effect on [Na+]c of ouabain alone,"[4]; ouabain 1 mM alone, SBFI",increase in [Na^+]c
"NC1=N[C@H](O)[C@H]2[C@H]3O[C@]4(O)O[C@@H]([C@@H](O)[C@@]2(N1)[C@@H]4O)[C@]3(O)CO [TTX, tetrodotoxin]",ouabain-induced increase in [Na+]c,[4],inhibited
C[C@H]1Oc2cc3c(-c4c(O)cc(O)c5c(O)c6c(cc45)O[C@H](C)[C@@H](C)C6=O)c(O)cc(O)c3c(O)c2C(=O)[C@@H]1C [chaetochromin A],inhibition of SUMOylation,[5]; ref [35],inhibitors of SUMOylation
NCC1(CC(=O)O)CCCCC1 [gabapentin],sedation in humans,[6],severe sedation in humans
same,ability to remain on the rotating rod,"[7]; gabapentin, naïve rats, data not shown",decrease in the ability of naïve rats to remain on the rotating rod
C[C@@H]1O[C@@H](O[C@H]2[C@H](O)C[C@H](c3ccc4c(c3O)C(=O)C3=C(C4=O)[C@@]4(O[C@H]5CC[C@H](O)[C@H](C)O5)C(=O)C[C@](C)(O)C[C@@]4(O)C=C3)O[C@@H]2C)CC[C@@H]1O[C@H]1C[C@@H](O)[C@H](O)[C@@H](C)O1 [kerriamycin B],inhibition of SUMOylation,[5]; ref [28],inhibitors of SUMOylation
COC(=CC(=O)O)C1c2cc3ccc(-c4ccc5cc6c(c(O)c5c4O)C(=O)CC(C)(O)C6C(=CC(=O)O)OC)c(O)c3c(O)c2C(=O)CC1(C)O (stereo not shown) [spectomycin B1],inhibition of SUMOylation,[5]; ref [35],inhibitors of SUMOylation
COC1=C(c2c(OC)cc3cc4c(c(O)c3c2O)C(=O)O[C@H](C)C4)C(=O)c2c(cc3c(c2O)C(=O)O[C@H](C)C3)C1=O [viomellein],inhibition of SUMOylation,[5]; ref [35],inhibitors of SUMOylation
Huwentoxin-IV,contribution of NaV1.7 to total sodium currents by isoform-specific blockade,[8],~ 80%
Ubc9-GST fusion protein (E2 SUMO-conjugating enzyme Ubc9) (from UniProt P63279 1-158),Kd,[9],25.5 µM
same,Kd,[10],26 µM
same,Kd,[11],7.6 µM
same,Kd,[12],12.2 µM
same,other,[12],80 µM and 137 µM
same,Kd,[13],0.8 µM
"Ubc9: E2 SUMO-conjugating enzyme, recombinant Ubc9-GST fusion protein",Kd,[14],12.2 ± 2.7 µM
same,stability of Ubc9-CRMP2 binding signal,[15],≥ 18 h
YGRKKRRQRRRGKMDENQ [t-CSM],motor performance in SNI rats,[16],did not affect motor performance at any time point
same,motor impairment or sedation,"[7]; rat, in vivo",no motor impairment or sedation
same,time on rotarod,"[7]; rat, in vivo",180 ± 0 s
same,Kd,[17],0.4 ± 0.1 µM
ginkgolic acid,inhibition of SUMOylation,[5]; ref [27],inhibitors of SUMOylation

# — article PMC6150792 (Pain, 2018)
